The text below walks through data of patent US20150218514A1, “PROMOTER OF DIFFERENTIATION FROM HEPATIC PROGENITOR CELL INTO HEPATIC CELL, AND USE THEREOF” (NATIONAL CANCER CENTER, priority 2012, published 2015).

The conditions of series [1]: non-patent document 12; cited from earlier work.
In series [2] the test system is HepG2 cells. The conditions noted are these: HepG2 cells treated for 2 days; non-patent document 8; cited from earlier work.
In series [3] the test system is Hepatoblastoma HepG2 cells. The series can be described thus: Morphology of HepG2 cells cultured with substance that inhibits DNA methylation caused by Dnmt-1. The conditions noted are these: 2.5 μM; day 14 of culture. It counts as cell-based, human. The protocol:
Hepatoblastoma HepG2 cells (American Type Culture Collection: ATCC) were plated on a 35 mm cell culture dish at 7×10^5 cells, and cultured in DMEM (Invitrogen Corporation) added with 100 IU/mL penicillin-100 μg/mL streptomycin solution (Invitrogen Corporation), 10% fetal bovine serum (Thermo Fisher Scientific K.K.), and a substance that inhibits DNA methylation (5-aza-2′-deoxycytidine: 5-aza (decitabine): 2.5 μM). The medium was exchanged every day.

Series [4] deals with HepG2 cells. The series can be described thus: PAS staining of HepG2 cells (glycogen storage capacity). It counts as cell-based, human. The conditions noted are these: 2.5 μM; culture for 14 days; compared to control without inhibitor. How it is done:
HepG2 cells (ATCC) were plated on a 35 mm cell culture dish at 7×10^5 cells, and cultured in DMEM (Invitrogen Corporation) added with 100 IU/mL penicillin-100 μg/mL streptomycin solution (Invitrogen Corporation), 10% fetal bovine serum (Thermo Fisher Scientific K.K.), and a substance that inhibits DNA methylation (5-aza-2′-deoxycytidine: 5-aza (decitabine): 2.5 μM). The medium was exchanged every day.

The subject of series [5] is Mouse hepatic progenitor cells. The series is described as follows: Expression level of hepatocyte markers after differentiation induction of mouse hepatic progenitor cells (real-time PCR). The following applies: for expression level of Cyp17a1 / expression level of G6pc / expression level of Tat / expression level of albumin: 100 nM siRNA introduced on day 2, day 6 of culture, compared to control siRNA (siCtrl). In kind it is cell-based. How it is done: To a basal medium for hepatocyte were added 5 μg/mL of insulin (Sigma-Aldrich Corporation), 25 ng/mL of epidermal growth factor (EGF) (Sigma-Aldrich Corporation), 25 ng/mL of hepatocyte growth factor (HGF) (Peprotech), 12.5 ng/mL of oncostatin M (Sigma-Aldrich Corporation), 5×10^−7M hydrocortisone 21-hemisuccinate sodium salt (Sigma-Aldrich Corporation) and 10^−7 M dexamethasone (Sigma-Aldrich Corporation) to prepare the medium.
The hepatic parenchymal cells were diluted with HEPES buffer added with 2% fetal bovine serum to prepare a 10^7 cells/100 μL cell suspension, which was transferred into a 5 mL round-bottom tube. A mouse FcR blocking antibody in EasySep Mouse Biotin Positive Selection Kit ([…] Technologies Inc) was added at 1 μL per 10^7 cells, and the mixture was admixed by tapping the tube. Biotin-labeled anti-E-cadherin antibody (eBioscience) was added at 2-4 μL per 10^7 cells, and the mixture was left standing at room temperature for 15 min while stirring the tube every 2-3 minutes. Biotin Selection Cocktail in EasySep Mouse Biotin Positive Selection Kit was added at 10 μL per 10^7 cells, and the mixture was left standing at room temperature for 15 min with occasional stirring. Magnetic particles in EasySep Mouse Biotin Positive Selection Kit were added at 5 μL per 10^7 cells, and the mixture was stirred and left standing at room temperature for 10 min. To the cell suspension was added a medium for cell isolation, and the volume was adjusted to 2.5 mL. The mixture was suspended with a 2 mL plastic pipette, and the tube was placed in an exclusive magnet ([…] Technologies Inc.) and left standing at room temperature for 10 min. The exclusive magnet containing the tube was reversed for 3 sec, and a non-hepatic progenitor cell fraction was removed (purification operation: first time). The tube was taken out from the exclusive magnet, 2.5 mL of the medium for cell isolation was added, and a purification operation was performed again (purification operation: second time). Furthermore, 2.5 mL of the medium for cell isolation was added, and a purification operation was performed for the third time (purification operation: third time). The cells remaining in the tube are the hepatic progenitor cells.
Total RNA was extracted from cultured cells, liver cancer cell lines, and mouse and human normal hepatic tissues by using miRNeasy Mini Kit (QUIAGEN). The total RNA was quantified by NanoDrop 1000 spectrophotometer (Thermo Fisher Scientific K.K.). The hepatic tissues recovered from mouse were placed in ice-cooled phosphate buffer and disrupted before extraction of RNA. Red blood cells were lysed in Red Blood Cell Lysis Buffer (Sigma-Aldrich Corporation).
(§1) RNA was quantified by the real-time PCR method using 7300 real-time PCR system (Applied Biosystems) and TaqMan MicroRNA Assays (Applied Biosystems). The miRNA expression was standardized at 6NU6B level. For quantification of messenger RNA, total RNA sample was treated with DNase (TURBO DNA-free kit: Ambion Inc.), and cDNA was synthesized from 1 μg of total RNA by using reverse transcriptase (SuperScript III Reverse Transcriptase: Ambion Inc.). For quantification, SYBR Green (PlatinumSYBR Green quantitative PCR SuperMix UDG: Invitrogen Corporation) was used. The reaction for real-time PCR was performed at 95° C., 2 min, 40 cycles (95° C. for 15 sec, 60° C. for 30 sec). The cDNA expression level was standardized by GAPDH.

The test system of another series is Dnmt-1. The series is described as follows: Dnmt-1 expression level after differentiation induction of mouse hepatic progenitor cells (real-time PCR). It counts as cell-based. The following applies: 100 nM siRNA; day 6 of culture; compared to control siRNA (siCtrl). How it is done: as §1, with “GAPDH. […]” for “GAPDH.”
Mouse hepatic progenitor cells were plated at 4×10^4 cells/cm^2 in a 35 mm cell culture dish coated with type I collagen, […], after confluence (after day 4 of culture), the cells were cultured in the medium for hepatic progenitor cells free of epidermal growth factor (EGF) and fetal bovine serum. […] Total RNA was extracted, and Dnmt-1 was quantified by the real-time PCR method. […]

Turning to `Nc1ncn([C@H]2C[C@H](O)[C@@H](CO)O2)c(=O)n1` [5-aza-2′-deoxycytidine], in series [1], the apoptosis entry is “induce apoptosis” and the cytotoxicity result was “high cytotoxicity”. Also, the “mRNA level of CYP gene” value in the series on HepG2 cells [2] was “increases”. In addition, the cell morphology result in series [3] is recorded as “morphology specific to mature hepatocyte (multiple nuclei, clear cell boundary)”. In the series with HepG2 cells [4], the “glycogen storage capacity (PAS staining)” value is recorded as “high glycogen storage capacity”.

Take `O=C(O)C(Cc1c[nH]c2ccccc12)N1C(=O)c2ccccc2C1=O` (centres unmarked) [RG108]: in series [5] (RG108 20 or 100 μM in medium from day 2, day 7 of culture, compared to control), the expression of albumin entry was “high level”. For the same compound, in series [5] (among the substances that inhibit DNA methylation), the “effect of promoting differentiation into a hepatocyte” value is reported as “high effect”.

Take “siDnmt-1b: double stranded RNA, sense strand SEQ ID NO: 11 and antisense strand SEQ ID NO: 12; siRNA that suppresses expression of Dnmt-1 (sense CAACGGAUCCUAUCACACUTT; antisense AGUGUGAUAGGAUCCGUUGTA; chemistry not given here)”: in series [5], the “expression level of Cyp17a1” value is on record as “high expression levels”, the “expression level of G6pc” value is “high expression levels”, the “expression level of Tat” value is reported as “high expression levels” and the “expression level of albumin” value is listed as “high expression levels”. Further, in the series on Dnmt-1, the “expression of Dnmt-1” value is on record as “suppressed”.

As for “siDnmt-1a: double stranded RNA, sense strand SEQ ID NO: 9 and antisense strand SEQ ID NO: 10; siRNA that suppresses expression of Dnmt-1 (sense GGUAGAGAGUUACGACGAATT; antisense UUCGUCGUAACUCUCUACCTG; chemistry not given here)”, in series [5], the “expression level of Cyp17a1” value is listed as “high expression levels”, the “expression level of G6pc” value is “high expression levels”, the “expression level of Tat” value is “high expression levels” and the “expression level of albumin” value is listed as “high expression levels”. Besides, in the series on Dnmt-1, the “expression of Dnmt-1” value is reported as “suppressed”.
